# Data published in article PMC12661400, “Oral bioavailable ITRI-148 degrades androgen receptor variants and overcomes antiandrogen resistance in advanced prostate cancer” (Neoplasia (New York, N.Y.), 2025).
# Tests used:
# Type in all cases: cell-based
# AR = AR degradation by immunoblotting in CRPC cells; details: 10 μM
# Experimental: Cell lysis, Western blotting, and AR ubiquitination were performed as described in [17]. Primary antibodies: AR (Millipore 06-680), AR-V7 (RevMAb Biosciences 31-1109-00), PSA (ABclonal A4355), NKX3-1 (Cell Signaling Technology 92998), GAPDH (Cell Signaling Technology 2118) and β-Actin (Sigma-Aldrich A5441).
# Fig. 1 ITRI-148 induces degradation of both AR and AR-V7 proteins in CRPC cells. […] (B) Expression of Flag-tagged AR-V7 in 293T cells following ITRI-148 treatment. Cells transiently expressing Flag-AR-V7 were pretreated with 50 μg/mL cycloheximide for 1 hour, then exposed to ITRI-148 at the indicated concentrations for 8 hours. AR-V7 expression was detected using an anti-Flag antibody. (C) Representative immunoblots showing AR protein levels in VCaP and CWR22Rv1 cells after 48 hours of ITRI-148 treatment. An N-terminal AR antibody was used to detect both full-length AR and LBD-truncated variants (AR-V(ΔLBD)) in CWR22Rv1 cells, while AR-V7 was detected using an AR-V7-specific antibody. DC₅₀ values were calculated from normalized band intensities, and Dₘₐₓ represents the maximal degradation achieved at 10 μM ITRI-148. (D) Immunofluorescence staining of AR after 24 or 48 hours of ITRI-148 treatment, detected using an N-terminal AR antibody. […] (F) Western blot analysis of ectopically expressed wild-type (WT) and mutant Myc-tagged AR in DU145 cells following 24 hours of treatment with 10 μM ITRI-148. Quantified AR levels are as indicated. TEXT PRINTED IN THE PICTURE: (C) ITRI-148: DC50 (μM) AR CWR22Rv1: 1.23 ± 1.86; DC50 (μM) AR VCaP: 0.05 ± 0.03; DC50 (μM) AR-V7 CWR22Rv1: 1.20 ± 0.92; DC50 (μM) AR-V7 VCaP: 0.02 ± 0.02; Dmax (%) AR CWR22Rv1: 65.02 ± 19.91; Dmax (%) AR VCaP: 80.49 ± 5.61; Dmax (%) AR-V7 CWR22Rv1: 72.10 ± 3.15; Dmax (%) AR-V7 VCaP: 91.36 ± 2.05
# CWR22Rv1 = assay: MTT cell viability, 7 days; details: 168 h
# Experimental: (§1) Cells were seeded in 96-well plates and treated with drugs the next day. After 7 days, viability was assessed using MTT assay.
# (§2) (C) Western blot analysis of AR and AR-V7 in C4-2B and C4-2B/MDVR cells after 48-hour ITRI-148 treatment. […] DEGs were determined relative to DMSO or pLKO.1 vector control. […] RPL13A was used for normalization. […] AR, AR-V7, and PSA expression in the drug-treated cells were detected across treatment timepoints.
# LNCaP95 = assay: MTT cell viability, 7 days; details: LNCaP-95, 168 h
# Experimental: as §1, §2
# LNCaP = assay: MTT cell viability, 7 days; details: Homo sapiens, 168 h
# Experimental: as §1, §2
# VCaP = assay: MTT cell viability, 7 days; details: Homo sapiens, 168 h
# Experimental: as §1, §2
Compound,degradation of the AR proteins (western blot) (AR),IC50 (CWR22Rv1) [µM],IC50 (LNCaP95) [µM],IC50 (LNCaP) [µM],IC50 (VCaP) [µM]
CN1C(=O)CCC(N2C(=O)c3cccc(NCC(=O)N4CCC(N5CCC(C#Cc6ccc(C7CCN(C8=Nn9c(nnc9C(F)(F)F)CC8)CC7)cc6)CC5)CC4)c3C2=O)C1=O (centres unmarked) [inactive analog of ITRI-148],failed to degrade the AR proteins,,,,
"N#Cc1ccc(O[C@H]2CC[C@H](NC(=O)c3ccc(N4CCC(CN5CCN(c6cc7c(cc6F)C(=O)N(C6CCC(=O)NC6=O)C7=O)CC5)CC4)nn3)CC2)cc1Cl (some centres unmarked) [ARV-110, reference compound]",,> 10,> 10,0.74,> 10
